This passage reports Kd results from ChEMBL document CHEMBL3991601, “The target landscape of clinical kinase drugs” (Science, 2017).

Structures can show the parent of a compound that is named as a salt. Calls of active or inactive are those of the source. On the calls: in the data inactive means no Kd found up to 30 µM.

Assay [1] deals with Serine/threonine-protein kinase 24 (Homo sapiens, UniProt Q9Y6E0).
For assay [2], the target named is Eukaryotic peptide chain release factor GTP-binding subunit ERF3B (Homo sapiens, UniProt Q8IYD1).
In another assay the target is Misshapen-like kinase 1 (Homo sapiens, UniProt Q8N4C8).
Assay [3] has as its target T1, Protein kinase C zeta type (Homo sapiens, UniProt Q05513).
T1 sequence (Q05513 whole entry): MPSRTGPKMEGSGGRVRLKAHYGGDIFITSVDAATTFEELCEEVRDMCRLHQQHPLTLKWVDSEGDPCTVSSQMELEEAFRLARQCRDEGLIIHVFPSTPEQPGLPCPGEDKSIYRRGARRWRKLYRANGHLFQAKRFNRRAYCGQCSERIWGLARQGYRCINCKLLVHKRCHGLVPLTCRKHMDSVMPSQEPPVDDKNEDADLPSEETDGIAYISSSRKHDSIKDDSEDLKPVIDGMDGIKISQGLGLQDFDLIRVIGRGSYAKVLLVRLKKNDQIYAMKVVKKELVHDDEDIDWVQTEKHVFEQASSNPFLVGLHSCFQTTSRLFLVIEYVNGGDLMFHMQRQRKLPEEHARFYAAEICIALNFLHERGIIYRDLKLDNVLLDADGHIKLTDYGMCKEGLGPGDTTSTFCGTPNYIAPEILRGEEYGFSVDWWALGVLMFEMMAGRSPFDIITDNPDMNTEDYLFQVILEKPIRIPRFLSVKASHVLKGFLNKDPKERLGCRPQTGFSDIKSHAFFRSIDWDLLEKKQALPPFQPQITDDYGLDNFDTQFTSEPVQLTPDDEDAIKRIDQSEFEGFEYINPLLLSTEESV

The target in assay [4] is Dual specificity testis-specific protein kinase 2 (Homo sapiens, UniProt Q96S53).
Assay [5] deals with Dual specificity protein kinase CLK3 (Homo sapiens, UniProt P49761). It counts as subcellular, K-562, COLO 205, SK-N-BE(2) and MV-4-11, Cell lysate. As to conditions: read-out: Kd apparent.
The target of assay [6] is Serine/threonine-protein kinase 38 (Homo sapiens, UniProt Q15208).
For assay [7], the target named is Dual specificity protein kinase CLK4 (Homo sapiens, UniProt Q9HAZ1).
In the next assay the target is T2, UMP-CMP kinase (Homo sapiens, UniProt P30085).
T2 sequence (P30085 whole entry): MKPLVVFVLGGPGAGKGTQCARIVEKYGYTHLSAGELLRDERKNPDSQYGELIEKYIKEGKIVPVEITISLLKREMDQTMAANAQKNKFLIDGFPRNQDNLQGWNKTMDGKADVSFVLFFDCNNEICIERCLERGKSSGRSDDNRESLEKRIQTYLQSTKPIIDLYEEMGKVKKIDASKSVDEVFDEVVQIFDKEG

For assay [8], the target named is Serine/threonine-protein kinase PLK1 (Homo sapiens, UniProt P53350).
Assay [9] has as its target Choline-phosphate cytidylyltransferase A (Homo sapiens, UniProt P49585).
The target in assay [10] is Cyclin-dependent kinase 10 (Homo sapiens, UniProt Q15131).
Assay [11] addresses Uncharacterized aarF domain-containing protein kinase 5 (Homo sapiens, UniProt Q3MIX3).

Dual specificity testis-specific protein kinase 2, sequence (Q96S53 whole entry): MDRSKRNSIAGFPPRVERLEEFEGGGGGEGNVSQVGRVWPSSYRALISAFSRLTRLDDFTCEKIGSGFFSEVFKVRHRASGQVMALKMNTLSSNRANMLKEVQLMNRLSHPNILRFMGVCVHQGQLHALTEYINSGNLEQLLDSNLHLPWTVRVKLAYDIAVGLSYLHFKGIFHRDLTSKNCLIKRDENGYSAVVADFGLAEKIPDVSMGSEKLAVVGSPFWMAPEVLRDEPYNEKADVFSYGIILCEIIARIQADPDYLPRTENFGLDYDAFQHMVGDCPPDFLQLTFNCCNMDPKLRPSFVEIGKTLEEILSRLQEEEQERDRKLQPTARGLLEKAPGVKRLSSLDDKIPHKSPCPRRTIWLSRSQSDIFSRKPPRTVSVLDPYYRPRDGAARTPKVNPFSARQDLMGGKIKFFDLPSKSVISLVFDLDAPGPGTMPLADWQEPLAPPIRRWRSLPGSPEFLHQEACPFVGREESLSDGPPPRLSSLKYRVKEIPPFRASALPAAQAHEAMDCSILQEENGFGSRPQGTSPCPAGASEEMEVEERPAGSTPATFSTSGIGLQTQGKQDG
Serine/threonine-protein kinase 38, sequence (Q15208 whole entry): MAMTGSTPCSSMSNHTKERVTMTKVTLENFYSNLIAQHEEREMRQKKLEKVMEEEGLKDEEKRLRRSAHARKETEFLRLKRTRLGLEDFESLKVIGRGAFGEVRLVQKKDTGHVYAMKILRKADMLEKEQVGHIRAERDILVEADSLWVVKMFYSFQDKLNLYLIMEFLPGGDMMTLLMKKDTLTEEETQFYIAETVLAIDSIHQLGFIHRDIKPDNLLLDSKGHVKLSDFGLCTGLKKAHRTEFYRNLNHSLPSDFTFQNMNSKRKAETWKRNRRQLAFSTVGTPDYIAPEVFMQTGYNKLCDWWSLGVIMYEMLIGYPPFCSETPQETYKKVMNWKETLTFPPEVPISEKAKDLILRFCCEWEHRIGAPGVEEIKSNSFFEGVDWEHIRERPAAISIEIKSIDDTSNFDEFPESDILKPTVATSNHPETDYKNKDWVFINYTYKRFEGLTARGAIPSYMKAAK
Misshapen-like kinase 1, sequence (Q8N4C8 whole entry): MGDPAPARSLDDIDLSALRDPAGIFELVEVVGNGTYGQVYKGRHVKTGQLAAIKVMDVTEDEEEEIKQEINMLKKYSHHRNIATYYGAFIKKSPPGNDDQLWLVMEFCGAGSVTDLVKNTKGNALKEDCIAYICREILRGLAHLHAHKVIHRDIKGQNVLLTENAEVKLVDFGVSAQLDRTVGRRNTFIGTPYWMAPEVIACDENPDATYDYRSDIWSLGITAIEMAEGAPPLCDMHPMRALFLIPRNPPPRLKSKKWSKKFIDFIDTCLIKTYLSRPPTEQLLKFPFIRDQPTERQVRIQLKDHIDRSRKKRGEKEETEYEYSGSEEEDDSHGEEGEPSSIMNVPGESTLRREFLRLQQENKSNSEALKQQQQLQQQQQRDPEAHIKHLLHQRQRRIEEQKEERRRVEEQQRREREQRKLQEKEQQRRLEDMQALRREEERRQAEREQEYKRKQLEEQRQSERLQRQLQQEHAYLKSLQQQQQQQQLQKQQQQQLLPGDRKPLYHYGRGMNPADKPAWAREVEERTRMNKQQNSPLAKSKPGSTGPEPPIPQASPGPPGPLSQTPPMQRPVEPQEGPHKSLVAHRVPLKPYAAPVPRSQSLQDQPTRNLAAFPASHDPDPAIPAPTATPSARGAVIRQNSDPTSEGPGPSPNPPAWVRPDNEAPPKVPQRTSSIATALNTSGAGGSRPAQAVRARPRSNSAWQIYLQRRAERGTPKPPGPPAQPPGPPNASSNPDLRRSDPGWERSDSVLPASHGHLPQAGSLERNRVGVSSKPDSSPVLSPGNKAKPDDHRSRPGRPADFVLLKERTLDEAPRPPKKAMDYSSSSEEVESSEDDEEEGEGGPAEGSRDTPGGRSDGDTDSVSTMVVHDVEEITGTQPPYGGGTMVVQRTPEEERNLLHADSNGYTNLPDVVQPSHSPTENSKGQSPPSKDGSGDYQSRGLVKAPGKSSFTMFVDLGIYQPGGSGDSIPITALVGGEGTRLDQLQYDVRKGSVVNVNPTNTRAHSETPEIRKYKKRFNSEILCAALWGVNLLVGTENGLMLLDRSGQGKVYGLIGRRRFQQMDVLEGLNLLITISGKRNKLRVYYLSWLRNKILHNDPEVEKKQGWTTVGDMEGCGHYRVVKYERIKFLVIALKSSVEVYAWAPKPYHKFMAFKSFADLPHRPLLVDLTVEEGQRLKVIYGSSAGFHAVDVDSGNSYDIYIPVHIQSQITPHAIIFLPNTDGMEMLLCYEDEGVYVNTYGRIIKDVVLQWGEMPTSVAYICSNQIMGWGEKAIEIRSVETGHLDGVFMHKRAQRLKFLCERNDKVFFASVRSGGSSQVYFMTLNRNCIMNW
Dual specificity protein kinase CLK3, sequence (P49761 whole entry): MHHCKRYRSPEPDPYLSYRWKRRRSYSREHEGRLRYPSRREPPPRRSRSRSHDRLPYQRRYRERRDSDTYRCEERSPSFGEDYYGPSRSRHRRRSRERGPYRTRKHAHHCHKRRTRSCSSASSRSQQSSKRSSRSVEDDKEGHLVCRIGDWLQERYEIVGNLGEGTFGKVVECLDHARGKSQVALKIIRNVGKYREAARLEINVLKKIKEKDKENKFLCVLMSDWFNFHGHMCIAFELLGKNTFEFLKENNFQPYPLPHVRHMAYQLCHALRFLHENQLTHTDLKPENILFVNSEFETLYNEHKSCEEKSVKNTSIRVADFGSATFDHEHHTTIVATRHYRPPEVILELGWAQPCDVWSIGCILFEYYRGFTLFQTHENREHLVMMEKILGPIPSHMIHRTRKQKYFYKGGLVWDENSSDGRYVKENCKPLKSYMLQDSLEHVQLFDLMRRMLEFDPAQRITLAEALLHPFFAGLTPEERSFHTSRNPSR
Choline-phosphate cytidylyltransferase A, sequence (P49585 whole entry): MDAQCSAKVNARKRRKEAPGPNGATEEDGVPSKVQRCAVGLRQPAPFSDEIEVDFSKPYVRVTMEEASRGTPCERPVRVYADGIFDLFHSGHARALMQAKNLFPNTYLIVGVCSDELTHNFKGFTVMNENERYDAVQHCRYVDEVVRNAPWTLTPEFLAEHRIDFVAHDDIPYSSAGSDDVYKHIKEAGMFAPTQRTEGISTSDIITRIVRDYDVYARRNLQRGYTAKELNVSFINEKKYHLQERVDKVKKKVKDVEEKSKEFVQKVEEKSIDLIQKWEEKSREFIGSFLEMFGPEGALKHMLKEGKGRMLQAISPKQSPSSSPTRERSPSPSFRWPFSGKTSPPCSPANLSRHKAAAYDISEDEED
Eukaryotic peptide chain release factor GTP-binding subunit ERF3B, sequence (Q8IYD1 whole entry): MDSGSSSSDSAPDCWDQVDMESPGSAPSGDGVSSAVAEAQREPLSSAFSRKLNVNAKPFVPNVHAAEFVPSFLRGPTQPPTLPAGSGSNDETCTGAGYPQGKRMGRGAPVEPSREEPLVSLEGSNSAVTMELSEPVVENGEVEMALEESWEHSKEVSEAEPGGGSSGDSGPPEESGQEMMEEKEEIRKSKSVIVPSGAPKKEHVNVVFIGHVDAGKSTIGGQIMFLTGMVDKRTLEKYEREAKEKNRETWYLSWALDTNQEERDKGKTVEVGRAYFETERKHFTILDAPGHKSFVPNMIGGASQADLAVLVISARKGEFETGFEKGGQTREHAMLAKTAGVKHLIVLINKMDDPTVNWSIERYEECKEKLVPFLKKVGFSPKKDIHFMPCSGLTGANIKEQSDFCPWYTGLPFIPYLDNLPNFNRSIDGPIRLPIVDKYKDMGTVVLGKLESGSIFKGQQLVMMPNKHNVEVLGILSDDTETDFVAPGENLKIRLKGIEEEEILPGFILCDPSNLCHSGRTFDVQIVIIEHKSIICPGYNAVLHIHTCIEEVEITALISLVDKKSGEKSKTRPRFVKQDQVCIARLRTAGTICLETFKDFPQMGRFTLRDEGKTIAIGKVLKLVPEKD
Serine/threonine-protein kinase PLK1, sequence (P53350 whole entry): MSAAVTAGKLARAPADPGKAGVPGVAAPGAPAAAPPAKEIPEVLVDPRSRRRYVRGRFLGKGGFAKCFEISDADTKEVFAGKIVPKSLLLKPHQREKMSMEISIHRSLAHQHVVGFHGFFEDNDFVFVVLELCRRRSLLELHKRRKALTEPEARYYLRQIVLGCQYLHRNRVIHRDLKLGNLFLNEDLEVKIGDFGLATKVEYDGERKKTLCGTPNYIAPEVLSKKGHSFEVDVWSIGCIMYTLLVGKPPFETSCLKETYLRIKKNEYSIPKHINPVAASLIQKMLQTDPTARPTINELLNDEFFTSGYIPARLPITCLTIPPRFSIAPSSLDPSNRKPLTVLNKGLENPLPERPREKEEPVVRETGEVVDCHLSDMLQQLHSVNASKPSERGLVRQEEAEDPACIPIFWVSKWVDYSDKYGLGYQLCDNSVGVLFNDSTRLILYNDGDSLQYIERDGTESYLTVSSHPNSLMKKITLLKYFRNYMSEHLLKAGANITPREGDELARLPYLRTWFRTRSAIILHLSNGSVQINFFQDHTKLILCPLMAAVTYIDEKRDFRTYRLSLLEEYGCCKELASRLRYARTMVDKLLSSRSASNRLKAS
Serine/threonine-protein kinase 24, sequence (Q9Y6E0 whole entry): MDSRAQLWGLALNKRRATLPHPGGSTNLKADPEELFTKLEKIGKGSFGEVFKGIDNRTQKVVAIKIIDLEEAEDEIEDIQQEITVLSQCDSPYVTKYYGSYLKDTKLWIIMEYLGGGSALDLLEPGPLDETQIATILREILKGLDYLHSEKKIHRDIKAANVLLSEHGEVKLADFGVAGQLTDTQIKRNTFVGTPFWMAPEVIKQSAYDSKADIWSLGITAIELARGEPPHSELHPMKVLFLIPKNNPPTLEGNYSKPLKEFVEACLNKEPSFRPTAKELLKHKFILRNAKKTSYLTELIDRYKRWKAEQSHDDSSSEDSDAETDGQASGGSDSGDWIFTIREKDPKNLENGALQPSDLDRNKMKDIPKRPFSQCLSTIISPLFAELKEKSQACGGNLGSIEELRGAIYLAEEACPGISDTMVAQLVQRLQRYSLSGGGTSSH

In the case of `C[C@@H](Oc1cc(C(=O)Nc2ccc(C(=O)N3CCN(C)CC3)cc2)nnc1N)c1c(Cl)ccc(F)c1Cl`, the Kd in [1] is > 30 µM (inactive).
Take `C[C@H]1CNCCCN1S(=O)(=O)c1cccc2cncc(F)c12`: the Kd (in [2]; on Misshapen-like kinase 1; in assay [3]; in assay [1]; in assay [4]) was > 30 µM (inactive) in each case.
As to `CCNC(=O)C#Cc1ccc2c(c1)NC(=O)/C2=C(\Nc1ccc(CN(C)C)cc1)c1ccccc1`, the Kd (in assay [5]; on Misshapen-like kinase 1; in assay [3]; in assay [1]; in [6]) was > 30 µM (inactive) each time.
In the case of `C=CC(=O)N1CCC[C@H](n2c(=O)n(-c3ccc(Oc4ccccc4)cc3)c3c(N)ncnc32)C1`, the Kd (in [5]; in assay [7]; on UMP-CMP kinase; in [8]; in assay [1]; in assay [4]) was > 30 µM (inactive) in each case.
Consider `Cc1nc(NC(=O)N2CCC[C@H]2C(N)=O)sc1-c1ccnc(C(C)(C)C(F)(F)F)c1` [ALPELISIB], for which the Kd (in assay [7]; on UMP-CMP kinase; at Misshapen-like kinase 1) was > 30 µM (inactive) in each case.
With `CNC(=O)c1ccccc1Sc1ccc2c(/C=C/c3ccccn3)n[nH]c2c1` [AXITINIB], the Kd (at UMP-CMP kinase; in assay [2]; in assay [9]; in assay [3]) was > 30 µM (inactive) throughout.
In the case of `COc1cc([C@@H]2c3cc4c(cc3[C@H](O)[C@H]3COC(=O)[C@@H]23)OCO4)cc(OC)c1OC` [AXL-1717], the Kd (in [10]; on UMP-CMP kinase; in assay [1]; in assay [6]) was > 30 µM (inactive) each time.
As for `COc1cc2ncnc(Oc3cccc(NC(=O)Nc4cc(C(C)(C)C(F)(F)F)on4)c3)c2cc1OC` [CEP-32496], the Kd (in [5]; in [10]; in assay [7]; on UMP-CMP kinase; at Misshapen-like kinase 1; in assay [8]) was > 30 µM (inactive) in each case. In addition, the Kd in assay [3], in [1] and in assay [6] was > 30 µM (inactive) each time.
`CCS(=O)(=O)N1CCN(c2ccc(Nc3ncc(C(N)=O)c(NC4CC4)n3)cc2)CC1` [Cerdulatinib Hydrochloride]: the Kd (in assay [11]; in [7]; on Misshapen-like kinase 1; in assay [3]) was > 30 µM (inactive) in each case.
On to `Cn1cc(C2=C(c3cn(C4CCN(Cc5ccccn5)CC4)c4ccccc34)C(=O)NC2=O)c2ccccc21` [ENZASTAURIN], for which, in assay [4], the Kd was > 30 µM (inactive).
Turning to `C[C@@H](Oc1cc(-n2cnc3ccc(CN4CCN(C)CC4)cc32)sc1C(N)=O)c1ccccc1C(F)(F)F` [GSK-461364], the Kd in assay [11], in [9], in assay [3] and in assay [4] was > 30 µM (inactive) each time.
Regarding `O=C(Nc1cc(C(F)(F)F)cc(C(F)(F)F)c1)c1cc(Cl)ccc1O` [IMD-0354], the Kd (in assay [5]; in assay [11]; at Misshapen-like kinase 1; in assay [9]; in assay [1]) was > 30 µM (inactive) throughout.
Consider `CNC(=O)c1cccc2cc(Oc3ccnc4cc(OCC5(N)CC5)c(OC)cc34)ccc12` [LUCITANIB], for which the Kd (on UMP-CMP kinase; on Misshapen-like kinase 1; in assay [9]; in [8]; in assay [1]) was > 30 µM (inactive) each time.
On to `CCOc1cc2ncc(C#N)c(Nc3ccc(F)c(Cl)c3)c2cc1NC(=O)/C=C/CN(C)C` [PELITINIB], for which the Kd (in assay [11]; in assay [10]; at UMP-CMP kinase; at Misshapen-like kinase 1; in [8]; in assay [6]) was > 30 µM (inactive) each time.
Turning to `Cc1nc(Nc2n[nH]c3c2CN(C(=O)N[C@H](CN(C)C)c2ccccc2)C3(C)C)c2sccc2n1` [PF-03758309], the Kd in [5] is > 30 µM (inactive); in assay [11], > 30 µM (inactive); in [10], > 30 µM (inactive); in assay [7] it was 0.013 µM (active); on UMP-CMP kinase it was > 30 µM (inactive); on Misshapen-like kinase 1, > 30 µM (inactive). Moreover, the Kd in [8] was > 30 µM (inactive); in [3], > 30 µM (inactive); in assay [6], 0.075 µM; in assay [4], > 30 µM (inactive).
As to `CC(=O)NCC(=O)N1[C@@H]2CC[C@H]1c1ccc(Nc3ncc(C(F)(F)F)c(NC4CCC4)n3)cc12` [PF-03814735], the Kd in assay [5] was > 30 µM (inactive); in [9], > 30 µM (inactive); in [1], 0.019 µM; in assay [4], > 30 µM (inactive).
On to `O=C(NOCCO)c1cc(CN2OCCCC2=O)c(F)c(F)c1Nc1ccc(I)cc1F` [RO-4987655], for which the Kd in [11], in assay [3] and in assay [4] was > 30 µM (inactive) each time.
`N#CC[C@H](C1CCCC1)n1cc(-c2ncnc3[nH]ccc23)cn1` [RUXOLITINIB]: in assay [2], the Kd is > 30 µM (inactive).
Regarding `O=c1[nH]ccc2cc(OC3CCNCC3)ccc12` [SAR-407899 FREE BASE], the Kd (in [11]; in assay [7]; at UMP-CMP kinase; in assay [2]; at Misshapen-like kinase 1; in assay [8]) was > 30 µM (inactive) in each case. Moreover, the Kd in assay [3], in assay [1], in assay [6] and in [4] was > 30 µM (inactive) in each case.
As to `CCS(=O)(=O)c1cccc(-c2cc(C(=O)NC3CCN(C)CC3)c(C)c3[nH]c4ncc(C)cc4c23)c1` [TAK-901], the Kd in assay [3], in assay [1] and in assay [4] was > 30 µM (inactive) in each case.
With `COc1cc2c(Nc3ccc(Cl)c(Cl)c3F)ncnc2cc1OC[C@@H]1C[C@@H]2CN(C)C[C@@H]2C1` [TESEVATINIB], the Kd (in [5]; in assay [11]; in assay [7]; on Misshapen-like kinase 1; in [9]; in assay [1]) was > 30 µM (inactive) each time. Also, the Kd in [4] was > 30 µM (inactive).
Consider `O=C1NC(=O)[C@@H](c2cn3c4c(cccc24)CCC3)[C@@H]1c1c[nH]c2ccccc12` [TIVANTINIB], for which the Kd (in assay [5]; in assay [11]; in [7]; at UMP-CMP kinase; in assay [3]; in assay [4]) was > 30 µM (inactive) in each case.
In the case of `Cn1ncc(Cl)c1-c1cc(C(=O)N[C@H](CN)Cc2ccc(F)c(F)c2)oc1Cl` [UPROSERTIB], the Kd (at UMP-CMP kinase; in assay [1]; in assay [6]) was > 30 µM (inactive) in each case.
Turning to `CC(C)c1cc(CNc2nc(Nc3cc(C4CC4)[nH]n3)cc(N3CCN(C)CC3)n2)on1` [XL-228], the Kd in assay [7], in [9], in [8] and in assay [1] was > 30 µM (inactive) in each case.
Regarding `C[C@@H](N)c1ccc(C(=O)Nc2ccnc3[nH]ccc23)cc1` [Y-39983], the Kd in [7], in [9], in assay [8], in [1] and in assay [6] was > 30 µM (inactive) each time.
As to `CN1C/C=C/CCOc2cccc(c2)-c2ccnc(n2)Nc2cccc(c2)C1` [ZOTIRACICLIB], the Kd in assay [3] was > 30 µM (inactive).
